Tests used:
Type in all cases: in vivo
[1] = tested on: caterpillars of the army worm (Spodoptera frugiperda); assay: Spodoptera frugiperda test; settings: 100 ppm active compound, leaf dip
Protocol: Solvent: 7 parts by weight of dimethylformamide
Emulsifier: 2 parts by weight of alkylaryl polyglycol ether
To produce a suitable preparation of active compound, 1 part by weight of active compound is mixed with the stated amounts of solvent and emulsifier, and the concentrate is diluted with emulsifier-containing water to the desired concentration.
Cabbage leaves (Brassica oleracea) are treated by being dipped into the preparation of active compound of the desired concentration and are populated with caterpillars of the army worm (Spodoptera frugiperda) while the leaves are still moist.
After the desired period of time, the kill in % is determined. 100% means that all caterpillars have been killed; 0% means that none of the caterpillars have been killed.

[2] = tested on: monocotyledonous and dicotyledonous weed and crop plants; assay: Herbicidal post-emergence action (K); settings: greenhouse, 320 g of a.i./ha, EC formulation
Protocol: K. Herbicidal Post-Emergence Action
Seeds of monocotyledonous and dicotyledonous weed and crop plants are placed into sandy loam in wood fibre pots, covered with soil and cultivated in a greenhouse under good growth conditions. 2-3 weeks after sowing, the test plants are treated at the one-leaf stage. The test compounds, formulated as wettable powders (WP) or emulsifiable concentrates (EC), are, in various dosages with a water application rate of 600 l/ha (converted), with 0.2% of wetting agent added, sprayed onto the green parts of the plants. After the test plants were kept in a greenhouse under optimum growth conditions for about 3 weeks, the effect of the preparations is rated visually in comparison to untreated controls (herbicidal effect in percent (%): 100% effect=the plants have died, 0% effect=like controlled plants).

[3] = tested on: larvae of the mustard beetle (Phaedon cochleariae); assay: Phaedon larvae test; settings: 500 ppm active compound, leaf dip
Protocol: Solvent: 7 parts by weight of dimethylformamide Emulsifier: 2 parts by weight of alkylaryl polyglycol ether To produce a suitable preparation of active compound, 1 part by weight of active compound is mixed with the stated amounts of solvent and emulsifier, and the concentrate is diluted with emulsifier-containing water to the desired concentration. Cabbage leaves (Brassica oleracea) are treated by being dipped into the preparation of active compound of the desired concentration and are populated with larvae of the mustard beetle (Phaedon cochleariae) while the leaves are still moist.

Structure (SMILES) | Kill rate in % after 7 d [1] [%] | herbicidal effect in percent, Echinochloa ([2]; Echinochloa) [%] | herbicidal effect in percent, Setaria ([2]; Setaria) [%] | herbicidal effect in percent, Sorghum ([2]; Sorghum) [%] | herbicidal effect in percent, Sugar beet ([2]; Sugar beet) [%] | Kill rate in % after 7 d [3] [%]
COC1CCC2(CC1)NC(=O)C(c1cc(-n3cc(Cl)cn3)ccc1C)=C2O (stereo not shown) [Ex. I-1-a-1] | 85 | 100 | 100 | 90 | 0 | –
Cc1ccc(-n2cc(Cl)cn2)cc1C1=C(O)CC(C)(C)CC1=O [Ex. I-7-a-1] | – | – | – | – | – | 100
Cc1ccc(-n2cc(Cl)cn2)cc1C1=C(O)C2(CCCCC2)CC1=O [Ex. I-6-a-1] | – | – | – | – | – | 90
